The structures appear in SMILES notation.

As usually defined, the IC50 is the point on the concentration scale where inhibition reaches its midpoint.

Test [1] has as its system synthesis of LTB4 in human whole blood. As to the kind of experiment: LTB4 production inhibition assay in human whole blood (HWB). The test is classed as cell-based. Particulars: heparinized human whole blood, 15 min at 37° C., Calcimycin 20 μM 30 min, plasma LTB4 by HTRF. An outline of the steps: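 LTB4 in plasma read by HTRF immunoassay after centrifugation. Before that, compound sat with heparinized human whole blood 15 min at 37° C, followed by 30 min at 37° C with 20 μM (final) calcimycin.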
On the technique in general: TR-FRET usually uses a lanthanide donor and a delayed reading to cut background.

Another test deals with human LTA4 hydrolase (Homo sapiens (Human), UniProt P09960). As to the kind of experiment: LTA4H Enzyme assay (peptidase, Arg-AMC cleavage). In kind it is biochemical. Particulars: LTA4H Enzyme 1 nM, Arg-AMC substrate 50 μM, room temperature 1 h, fluorescence. The method in brief: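 Aminomethylcoumarin release measured fluorimetrically (380/460 nm) after 1 h at room temperature. Reaction: 1 nM final enzyme, 50 μM final Arg-AMC and compound in Tris-HCl pH 7.5 with 100 mM KCl and 0.5% BSA.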
human LTA4 hydrolase, sequence (P09960 whole entry): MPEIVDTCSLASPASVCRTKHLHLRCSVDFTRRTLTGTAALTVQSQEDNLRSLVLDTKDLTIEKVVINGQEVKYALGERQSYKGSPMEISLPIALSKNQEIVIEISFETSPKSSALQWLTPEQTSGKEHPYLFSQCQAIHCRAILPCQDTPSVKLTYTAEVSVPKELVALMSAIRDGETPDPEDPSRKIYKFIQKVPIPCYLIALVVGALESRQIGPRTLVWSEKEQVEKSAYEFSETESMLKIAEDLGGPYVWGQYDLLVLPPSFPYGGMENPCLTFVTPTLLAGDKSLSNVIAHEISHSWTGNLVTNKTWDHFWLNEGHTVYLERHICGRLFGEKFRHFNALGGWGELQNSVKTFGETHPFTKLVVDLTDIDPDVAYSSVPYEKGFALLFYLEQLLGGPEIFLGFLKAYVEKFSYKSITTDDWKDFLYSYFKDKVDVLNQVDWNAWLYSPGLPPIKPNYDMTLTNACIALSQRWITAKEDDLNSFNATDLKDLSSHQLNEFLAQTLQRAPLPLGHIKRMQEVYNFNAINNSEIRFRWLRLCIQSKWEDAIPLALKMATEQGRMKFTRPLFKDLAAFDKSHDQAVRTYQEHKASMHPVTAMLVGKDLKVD

On to `N#CC1(C(=O)N2CCN(Cc3ccc4cc(Oc5ccc(-c6ccn[nH]6)cn5)ccc4n3)CC2)CCC1` [Example 146, 1-(4-{6-[5-(2H-Pyrazol-3-yl)-pyridin-2-yloxy]-quinolin-2-ylmethyl}-piperazine-1-carbonyl)-cyclobutanecarbonitrile], for which the figures for the IC50 (in test [1]; against human LTA4 hydrolase) were 750 nM and 3.4 nM, respectively.

As for `N#CC1(C(=O)N2CCN(Cc3ccc4cc(Oc5ccc(-c6ccn[nH]6)cn5)ccc4n3)CC2)CCOCC1` [Example 148, 4-(4-{6-[5-(2H-Pyrazol-3-yl)-pyridin-2-yloxy]-quinolin-2-ylmethyl}-piperazine-1-carbonyl)-tetrahydro-pyran-4-carbonitrile], the IC50 in test [1] amounted to 1100 nM; at human LTA4 hydrolase it was 7.9 nM.

Turning to `CC(C#N)C(=O)N1CCN(Cc2ccc3cc(Oc4ccc(-c5ccn[nH]5)cn4)ccc3n2)CC1` (stereo not shown) [Example 149, 2-Methyl-3-oxo-3-(4-{6-[5-(2H-pyrazol-3-yl)-pyridin-2-yloxy]-quinolin-2-ylmethyl}-piperazin-1-yl)-propionitrile], the IC50 came to 200 nM in test [1] and 0.47 nM on human LTA4 hydrolase.

As to `CC1(O)CC(C(=O)N2CCN(Cc3ccc4cc(Oc5ccc(-c6ccn[nH]6)cn5)ccc4n3)CC2)C1` (stereo not shown) [Example 150, (3-Hydroxy-3-methyl-cyclobutyl)-(4-{6-[5-(2H-pyrazol-3-yl)-pyridin-2-yloxy]-quinolin-2-ylmethyl}-piperazin-1-yl)-methanone], the IC50 turned out to be 490 nM in test [1] and 3.4 nM on human LTA4 hydrolase.

`O=C([C@@H]1CCC[C@@H]1O)N1CCN(Cc2ccc3cc(Oc4ccc(-c5ccn[nH]5)cn4)ccc3n2)CC1` [Example 151, ((1R,2S)-2-Hydroxy-cyclopentyl)-(4-{6-[5-(2H-pyrazol-3-yl)-pyridin-2-yloxy]-quinolin-2-ylmethyl}-piperazin-1-yl)-methanone]: the IC50 came out at 800 nM in test [1] and 6.1 nM on human LTA4 hydrolase.

(Values after patent publication US9573957B2 (Boehringer Ingelheim International GmbH, priority 2013, dated 2017).)
